Like-named read-outs stand apart in the source and are kept apart here. Numbered stars: 1 amine (or outer) side, 2 acyl side, 3 side chain; on linkers, the order of the positions; unused ones are H or OH. Square brackets hold non-standard residues; d marks the D form. Peptide text beside a SMILES is read from it. * marks the point of attachment. Emetine(N2') = CC[C@H]1CN2CCc3cc(OC)c(OC)cc3[C@@H]2C[C@@H]1C[C@@H]1c2cc(OC)c(OC)cc2CCN1*; PABC = O=C(OCc1ccc(N[*:1])cc1)[*:2]
What was measured:
MCF-7 = experiment: MTT cell proliferation; conditions: for IC50: read-out: IC50 (nM) MCF-7
PC3 = experiment: MTT cell proliferation; conditions: for cytotoxicity to PC3 (in words): exposure time not given; for IC50 fold higher than that of emetine, PC3: in FAP-containing FBS
[1] = Hydrolysis of prodrugs in media with 10% FBS; type: in vitro ADME, bovine; conditions: for % emetine released, 10% FBS: RPMI media with 10% FBS, 500 μM compound, 1% DMSO, 24 hr, HPLC and MS
LNCaP = experiment: MTT cell proliferation; conditions: for cytotoxicity to LNCaP (in words): exposure time not given
[2] = biological target: DPPIV (human recombinant CD26) (Homo sapiens, UniProt P27487); experiment: DPPIV-mediated hydrolysis of prodrugs ex vivo; type: in vitro ADME
Sequence of DPPIV (human recombinant CD26) (P27487 whole entry): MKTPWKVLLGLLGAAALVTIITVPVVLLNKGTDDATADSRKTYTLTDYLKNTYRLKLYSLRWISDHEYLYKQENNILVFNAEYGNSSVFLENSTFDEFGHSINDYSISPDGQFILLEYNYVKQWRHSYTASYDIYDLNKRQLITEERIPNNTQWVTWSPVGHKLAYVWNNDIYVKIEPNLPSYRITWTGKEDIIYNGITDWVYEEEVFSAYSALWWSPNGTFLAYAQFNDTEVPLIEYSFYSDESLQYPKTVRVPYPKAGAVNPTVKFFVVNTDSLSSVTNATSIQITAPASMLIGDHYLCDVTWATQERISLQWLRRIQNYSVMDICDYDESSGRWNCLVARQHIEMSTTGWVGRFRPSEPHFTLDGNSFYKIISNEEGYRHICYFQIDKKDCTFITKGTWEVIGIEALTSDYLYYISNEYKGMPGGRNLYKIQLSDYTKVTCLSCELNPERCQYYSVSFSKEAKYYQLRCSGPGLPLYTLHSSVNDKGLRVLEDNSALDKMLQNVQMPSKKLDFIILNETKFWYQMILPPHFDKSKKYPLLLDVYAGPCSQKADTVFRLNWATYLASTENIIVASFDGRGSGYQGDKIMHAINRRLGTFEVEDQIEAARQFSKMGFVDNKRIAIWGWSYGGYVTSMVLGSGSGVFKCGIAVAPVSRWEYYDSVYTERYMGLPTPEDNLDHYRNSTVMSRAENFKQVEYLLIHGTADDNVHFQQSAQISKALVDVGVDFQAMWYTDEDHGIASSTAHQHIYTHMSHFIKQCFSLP

[3] = test system: FAP/DPPIV activity in 10% FBS; experiment: Inhibition of hydrolysis of 10 to emetine in 10% FBS by FAP inhibitor; type: biochemical, bovine; conditions: Ac-Gly-boroPro 200 μM added to 10% FBS containing media
FAP [4] = biological target: T1, FAP (Homo sapiens, UniProt Q12884); experiment: FAP-mediated hydrolysis of prodrugs ex vivo; type: in vitro ADME; conditions: 37°C; for release of emetine on incubation with FAP (in words): FAP in FAP buffer / FAP containing media, LC-MS
T1 sequence (Q12884 27-760 limits assumed): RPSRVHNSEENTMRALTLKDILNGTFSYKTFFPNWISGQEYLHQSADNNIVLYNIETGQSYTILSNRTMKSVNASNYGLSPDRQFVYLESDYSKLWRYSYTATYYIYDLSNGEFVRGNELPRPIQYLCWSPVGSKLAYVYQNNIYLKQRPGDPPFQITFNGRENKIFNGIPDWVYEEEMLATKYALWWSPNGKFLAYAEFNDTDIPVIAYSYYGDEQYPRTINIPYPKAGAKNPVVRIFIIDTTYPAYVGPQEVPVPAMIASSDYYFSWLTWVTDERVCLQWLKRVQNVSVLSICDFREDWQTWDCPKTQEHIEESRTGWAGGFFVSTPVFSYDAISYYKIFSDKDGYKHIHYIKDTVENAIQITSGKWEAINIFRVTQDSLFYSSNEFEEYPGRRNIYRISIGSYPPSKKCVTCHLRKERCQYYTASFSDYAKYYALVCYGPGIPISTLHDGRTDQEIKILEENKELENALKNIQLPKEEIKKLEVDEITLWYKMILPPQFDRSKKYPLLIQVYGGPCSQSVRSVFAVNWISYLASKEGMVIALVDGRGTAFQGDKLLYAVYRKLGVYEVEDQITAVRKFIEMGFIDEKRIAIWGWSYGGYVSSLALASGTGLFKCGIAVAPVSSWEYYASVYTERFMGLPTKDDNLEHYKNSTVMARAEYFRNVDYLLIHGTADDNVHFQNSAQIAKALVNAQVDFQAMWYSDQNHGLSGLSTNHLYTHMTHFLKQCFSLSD

FAP [5] = experiment: FAP buffer; conditions: 37°C, up to 24 hr
FAP and DPPIV = experiment: mixture of purified FAP and DPPIV; conditions: 37°C, up to 24 hr
PrEC cells = experiment: Cytotoxicity in normal prostatic epithelial cells in serum free media
[6] = test system: NCI 60 cancer cell screen; conditions: read-out: GI50 in NCI 60 cancer cell screen; no reference given; cited from earlier work
[7] = Stability in serum free media; type: in vitro ADME; conditions: 37°C, 72 hr incubation
DPPIV = experiment: FAP buffer; conditions: Human, 37°C, up to 48 hr
[8] = Table II, 3-day exposure, media containing 10% FBS, MTT
[9] = read-out: IC50 (nM) PC3, Table II, 3-day exposure, media containing 10% FBS, MTT
[10] = very high concentration, incubation up to 48 hr at 37°C, LC-MS
[11] = read-out: IC50 (nM) LNCaP, Table II, 3-day exposure, media containing 10% FBS, MTT
[12] = 3-day exposure, media with 10% FBS

Which “cytotoxicity to MCF-7 (in words)” value (MCF-7; media with 10% FBS, exposure time not given) does the source give for `CC[C@H]1CN2CCc3cc(OC)c(OC)cc3[C@@H]2C[C@@H]1C[C@@H]1c2cc(OC)c(OC)cc2CCN1C(=O)[C@@H]1CCCN1C(=O)[C@H](C)N` [Compound 9] here?
The value was “inactive compared to emetine”.

And the IC50 (MCF-7; [8])?
The IC50 was greater than 10000 nM.

And the “cytotoxicity to PC3 (in words)” value (PC3; media with 10% FBS)?
Its value is “inactive compared to emetine”.

And the IC50 (PC3; [9])?
The IC50 was greater than 10000 nM.

What about the “% emetine released, 10% FBS” value ([1]; 37°C) of the same molecule?
The value was 0%.

And the “conversion to emetine in 10% FBS (in words)” value [1, 10]?
Its value is “not converted to emetine”.

And the “cytotoxicity to LNCaP (in words)” value (LNCaP; media with 10% FBS)?
The value was “inactive compared to emetine”.

What about the IC50 (LNCaP; [11]) of the same molecule?
Its IC50 is 9520 nM.

What about the “conversion to emetine by purified DPPIV (in words)” value [2, 10] of the same molecule?
The value was “not converted to emetine”.

With `CC(=O)NCC(=O)N1CCC[C@@H]1B(O)O` [AcGBP, Ac-Gly-boroPro] as the molecule, how does the “inhibition of release of emetine from 10 in 10% FBS, 2 hr” value ([3]; 2 hr) read?
The value was “completely inhibited”.

What about the “decrease of release of emetine from 10 in 10% FBS, 24 hr” value ([3]; 24 hr) of the same molecule?
Its value is “approximately 45%”.

With `CC[C@H]1CN2CCc3cc(OC)c(OC)cc3[C@@H]2C[C@@H]1C[C@@H]1c2cc(OC)c(OC)cc2CCN1C(=O)[C@H](C)NC(=O)[C@@H]1CCCN1C(=O)CNC(=O)[C@H](C)NC(=O)[C@@H]1CCCN1C(=O)CNC(=O)[C@H](CO)NC(=O)[C@H](C)NC(C)=O` [Compound 3] (Ac-ASGPAGPA-{Emetine(N2')}) as the molecule, how does the “% cleavage to Ala-Gly-Pro-Ala-Emetine” value (FAP [4]; 24 hr incubation with FAP) read?
The value was 100%.

And the “release of emetine on incubation with FAP (in words)” value (“release of emetine on incubation” for short) (FAP [4]; 24 hr)?
The value was “no further conversion to free emetine”.

And the “IC50 fold higher than that of emetine, PC3” value (PC3)?
The value was “more than 150 fold”.

Which fragment found (FAP [5]) does the source give for “Ac-Ala-Ser-Gly-Pro-Ala-Gly-Pro-Ala-Pro-PABC-Emetine” here?
Its fragment found is “emetine”.

What about the fragment found (FAP and DPPIV) of the same molecule?
The fragment found was “emetine, 2 hr”.

Which results are given for `CC[C@H]1CN2CCc3cc(OC)c(OC)cc3[C@@H]2C[C@@H]1C[C@H]1NCCc2cc(OC)c(OC)cc21` [Emetine, emetine]?
percentage of viable cells relative to control, day 1 (PrEC cells; 100 nM, PrEC in serum free media lacking FAP and DPPIV, day 1): 80%; percentage of viable cells relative to control, day 2 (PrEC cells; 100 nM, PrEC in serum free media lacking FAP and DPPIV, day 2): 50%; percentage of viable cells relative to control, day 3 (PrEC cells; 100 nM, PrEC in serum free media lacking FAP and DPPIV, day 3): 10%; cytotoxicity to PrEC at 100 nM and 1,000 nM (in words) (PrEC cells; 3-day exposure, keratinocyte serum free media, no FAP or DPPIV): highly cytotoxic; IC50 (PrEC cells; Homo sapiens, PrEC, 72 h, read-out: calculated IC50 in the PrEC cell lines): 35.7 nM; IC50 (MCF-7; Homo sapiens, MCF7, 72 h): 35.8 ± 1.6 nM; GI50 [6]: 27 nM; IC50 (PC3; Homo sapiens, PC-3, 120 h, read-out: PC3 [IC50 (nM)]): 29.4 ± 3.2 nM; IC50 (LNCaP; Homo sapiens, LNCaP, 120 h, read-out: LNCaP [IC50 (nM)]): 31.6 ± 2.4 nM

Which results are given for `CC[C@H]1CN2CCc3cc(OC)c(OC)cc3[C@@H]2C[C@@H]1C[C@@H]1c2cc(OC)c(OC)cc2CCN1C(=O)OCc1ccc(NC(=O)[C@@H]2CCCN2C(=O)[C@H](C)N)cc1` [Compound 10, Ala-Pro-PABC-Emetine]?
cytotoxicity to PrEC (in words) (PrEC cells; 100 nM, 1-3 days exposure, serum free media lacking FAP and DPPIV): no observable cytotoxicity; cytotoxicity / IC50 compared with emetine, MCF-7 (in words) (MCF-7; [12]): cytotoxicity comparable to that of emetine; IC50 (MCF-7; [8]): 38.4 ± 1.2 nM; stability in serum free media [7]: completely stable; % conversion to emetine by FAP, 24 hr (FAP [4]; purified recombinant FAP 300 nM, 24 hr): 36%; cytotoxicity / IC50 compared with emetine, PC3 (in words) (PC3; [12]): cytotoxicity comparable to that of emetine; IC50 (PC3; [9]): 37.2 ± 1.6 nM; % conversion to emetine in 10% FBS, 2 hr ([1]; 10% FBS media, 37°C, 2 hr): 10%; % emetine released, 10% FBS ([1]; 37°C): 78%; cytotoxicity / IC50 compared with emetine, LNCaP (in words) (LNCaP; [12]): cytotoxicity comparable to that of emetine; IC50 (LNCaP; [11]): 38.2 ± 1 nM; % conversion to emetine by purified DPPIV, 2 hr ([2]; 10 at 500 μM (Fig. 3 legend: 200 μM), DPPIV 30 nM, 37°C, 2 hr): 88%

For `CC[C@H]1CN2CCc3cc(OC)c(OC)cc3[C@@H]2C[C@@H]1C[C@@H]1c2cc(OC)c(OC)cc2CCN1C(=O)[C@@H]1CCCN1C(=O)CNC(=O)[C@H](C)NC(=O)[C@@H]1CCCN1C(=O)CNC(=O)[C@H](CO)NC(=O)[C@H](C)NC(C)=O` [Compound 1] (Ac-ASGPAGP-{Emetine(N2')}), which “release of emetine on incubation” value (FAP [4]; 24 hr) is on record?
The value was “did not release detectable amounts of emetine”.

What about the “cytotoxicity to PC3 (in words)” value (PC3; media with 10% FBS) of the same molecule?
Its value is “not cytotoxic”.

What about the “cytotoxicity to LNCaP (in words)” value (LNCaP; media with 10% FBS) of the same molecule?
The value was “not cytotoxic”.

Which fragment found (FAP [5]) does the source give for Ala-Pro-PABC-Emetine here?
Its fragment found is “emetine”.

And the fragment found (DPPIV)?
The fragment found was “emetine, 2 hr”.

With `CC[C@H]1CN2CCc3cc(OC)c(OC)cc3[C@@H]2C[C@@H]1C[C@@H]1c2cc(OC)c(OC)cc2CCN1C(=O)OCc1ccc(NC(=O)[C@@H]2CCCN2C(=O)CNC(=O)[C@H](C)NC(=O)[C@@H]2CCCN2C(=O)CNC(=O)[C@H](CO)NC(=O)[C@H](C)NC(C)=O)cc1` [Compound 2] (Ac-ASGPAGP[PABC]-{Emetine(N2')}) as the molecule, how does the “release of emetine on incubation” value (FAP [4]; 24 hr) read?
The value was “not cleaved by FAP containing media to release emetine”.

What about the “cytotoxicity to PC3 (in words)” value (PC3; media with 10% FBS) of the same molecule?
Its value is “not cytotoxic”.

And the “cytotoxicity to LNCaP (in words)” value (LNCaP; media with 10% FBS)?
The value was “not cytotoxic”.

For `CC[C@H]1CN2CCc3cc(OC)c(OC)cc3[C@@H]2C[C@@H]1C[C@@H]1c2cc(OC)c(OC)cc2CCN1C(=O)OCc1ccc(NC(=O)[C@H](C)NC(=O)[C@@H]2CCCN2C(=O)CNC(=O)[C@H](C)NC(=O)[C@@H]2CCCN2C(=O)CNC(=O)[C@H](CO)NC(=O)[C@H](C)NC(C)=O)cc1` [Compound 4] (Ac-ASGPAGPA[PABC]-{Emetine(N2')}), which “% Ala-Gly-Pro-Ala-PABC-Emetine (minor cleavage product)” value (FAP [4]; 24 hr incubation with FAP) is on record?
The value was 15%.

What about the “% Ala-PABC-Emetine (major cleavage product)” value (FAP [4]; 24 hr incubation with FAP) of the same molecule?
Its value is 85%.

And the “release of emetine on incubation” value (FAP [4]; 24 hr)?
Its value is “no further conversion to free emetine”.

And the “IC50 fold higher than that of emetine, PC3” value (PC3)?
Its value is “more than 150 fold”.

Source: publication PMC6432629 (The Prostate, 2016)
